Results from patent US7622469B2, “2,4-diamino-1,3,5-triazine derivatives” (Hamari Chemicals, Ltd., priority 2002, dated 2009).

Key:
VRE 49 [1] = assay: Bactericidal activity test (MBC, phenol coefficient measuring method); type: cell-based, vancomycin-resistant enterococci
Experimental: (§1) As a test bacterium, the same bacteria species as those of the antibacterial activity test were used; as a medium to be used, a SCD medium (manufactured by Eiken Chemical Co., Ltd.) was used for pre-culture medium; and a heart infusion bouillon medium (manufactured by Eiken Chemical Co., Ltd.) was used as a medium for growing a live bacterium in a test solution after bactericidal treatment. One platinum loop of a test bacterium was inoculated into 20 ml of a medium, and static culture was carried out at 37° C. for 18 to 20 hours, and the cells were adjusted with a sterilized physiological saline to 1×10^7/ml, which was used as a test bacterium solution.
(§2) Then, a solution of each compound in methanol was subjected to ½ stepwise dilution with sterilized water, each 5 ml was dispensed into a test tube, 0.5 ml of the previously prepared test bacterium solution was added thereto, and the mixture was blended well. After 1 minute, 3 minutes and 5 minutes has passed, 5 μl of the test solution was collected and inoculated into 2 ml of a heart infusion bouillon medium, this was cultured at 37° C. for 40 to 48 hours, and the presence or absence of growth of a bacterium was determined. A test was performed three times, a minimum concentration at which growth of a bacterium was not recognized two or more times was adopted as a minimal bactericidal concentration (MBC value).
(§3) Numerical values in Tables represent MBC expressed in μg/ml unit.

MRSA KM 97-53 [2] = assay: Antibacterial activity test (MIC); type: cell-based, methicillin-resistant Staphylococcus aureus; settings: Mueller-Hinton Broth, 37° C., 20 to 24 hours
In short: (§4)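 Broth dilution MIC per Japanese Society of Chemotherapy method, in Mueller-Hinton Broth with inoculum of 10^5/ml from 16–20 h cultures at 37° C. Compound (methanol-dissolved) tested at 100 μg/ml and 2^n-fold (n=−10 to 1) twofold steps; MIC expressed in μg/ml.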

MRSA 97-115 [3] = assay: Antibacterial activity test (MIC); type: cell-based, methicillin-resistant Staphylococcus aureus; settings: Mueller-Hinton Broth, 37° C., 20 to 24 hours
In short: as §4

MRSA KM 97-108 [4] = assay: Antibacterial activity test (MIC); type: cell-based, methicillin-resistant Staphylococcus aureus; settings: Mueller-Hinton Broth, 37° C., 20 to 24 hours
In short: as §4

VRE 49 [5] = assay: Antibacterial activity test (MIC); type: cell-based, vancomycin-resistant enterococci; settings: Mueller-Hinton Broth, 37° C., 20 to 24 hours
Experimental: Regarding compounds obtained in respective Working Examples, in order to investigate antibacterial activity, minimal inhibitory concentration (MIC) was determined according to a standard method of Japanese Society of Chemotherapy.
As a test bacterium, nine kinds of S. aureus 209PJC, MRSA 97-115, MRSA KM 97-53, MRSA KM97-108, VRE 49, E. coli NIHJ JC-2, P. aeruginosa PAO-1, P. aeruginosa No. 12, P. aeruginosa KM97-5 were used and, as a medium, Mueller-Hinton Broth (DIFCO) was used. One platinum loop of a test bacterium was inoculated into 20 ml of a medium, and static culture was carried out at 37° C. for 16 to 20 hours, and then each bacterium species was diluted with a sterilized physiological saline to 10^5/ml, which was used as a test bacterium solution.
Then, each compound was dissolved in methanol, subjected to ½ stepwise dilution with a medium to prepare a medium for measuring sensitivity, and each 2 ml was dispensed into a test tube. A compound concentration in a medium was adjusted to 100 μg/ml and its 2^n-fold (n=−10 to 1).
Numerical values in Tables represent MIC expressed in μg/ml unit.

P. aeruginosa No. 12 [6] = assay: Bactericidal activity test (MBC, phenol coefficient measuring method); type: cell-based
Experimental: as §1, §2, §3

P. aeruginosa KM 97-5 [7] = assay: as above; type: cell-based
Experimental: as §1, §2, §3

E. coli NIHJ JC-2 [8] = assay: as above; type: cell-based
Experimental: as §1, §2, §3

P. aeruginosa PAO-1 [9] = assay: as above; type: cell-based
Experimental: as §1, §2, §3

S. aureus 209PJC [10] = assay: as above; type: cell-based
Experimental: as §1, §2, §3

P. aeruginosa No. 12 [11] = assay: Antibacterial activity test (MIC); type: cell-based; settings: Mueller-Hinton Broth, 37° C., 20 to 24 hours
In short: as §4

P. aeruginosa KM 97-5 [12] = assay: Antibacterial activity test (MIC); type: cell-based; settings: Mueller-Hinton Broth, 37° C., 20 to 24 hours
In short: as §4

E. coli NIHJ JC-2 [13] = assay: Antibacterial activity test (MIC); type: cell-based; settings: Mueller-Hinton Broth, 37° C., 20 to 24 hours
In short: as §4

P. aeruginosa PAO-1 [14] = assay: Antibacterial activity test (MIC); type: cell-based; settings: Mueller-Hinton Broth, 37° C., 20 to 24 hours
In short: as §4

S. aureus 209PJC [15] = assay: Antibacterial activity test (MIC); type: cell-based; settings: Mueller-Hinton Broth, 37° C., 20 to 24 hours
In short: as §4

MRSA KM 97-53 [16] = assay: Bactericidal activity test (MBC, phenol coefficient measuring method); type: cell-based, methicillin-resistant Staphylococcus aureus
Experimental: as §1, §2, §3

MRSA 97-115 [17] = assay: as above; type: cell-based, methicillin-resistant Staphylococcus aureus
Experimental: as §1, §2, §3

MRSA KM 97-108 [18] = assay: as above; type: cell-based, methicillin-resistant Staphylococcus aureus
Experimental: as §1, §2, §3

| minimal inhibitory concentration (MIC) (MRSA KM 97-53 [2]) | minimal inhibitory concentration (MIC) (MRSA 97-115 [3]) | minimal inhibitory concentration (MIC) (MRSA KM 97-108 [4]) | minimal inhibitory concentration (MIC) (VRE 49 [5]) | SMILES | minimal bactericidal concentration (MBC) (VRE 49 [1]; 1 min) | minimal bactericidal concentration (MBC) (VRE 49 [1]; 3 min) | minimal bactericidal concentration (MBC) (VRE 49 [1]; 5 min) | minimal bactericidal concentration (MBC) (P. aeruginosa No. 12 [6]; 1 min) | minimal bactericidal concentration (MBC) (P. aeruginosa No. 12 [6]; 3 min) | minimal bactericidal concentration (MBC) (P. aeruginosa No. 12 [6]; 5 min) | minimal bactericidal concentration (MBC) (P. aeruginosa KM 97-5 [7]; 1 min) | minimal bactericidal concentration (MBC) (P. aeruginosa KM 97-5 [7]; 3 min) | minimal bactericidal concentration (MBC) (P. aeruginosa KM 97-5 [7]; 5 min) | minimal bactericidal concentration (MBC) (E. coli NIHJ JC-2 [8]; 1 min) | minimal bactericidal concentration (MBC) (E. coli NIHJ JC-2 [8]; 3 min) | minimal bactericidal concentration (MBC) (E. coli NIHJ JC-2 [8]; 5 min) | minimal bactericidal concentration (MBC) (P. aeruginosa PAO-1 [9]; 1 min) | minimal bactericidal concentration (MBC) (P. aeruginosa PAO-1 [9]; 3 min) | minimal bactericidal concentration (MBC) (P. aeruginosa PAO-1 [9]; 5 min) | minimal bactericidal concentration (MBC) (S. aureus 209PJC [10]; 1 min) | further results |
| --- | --- | --- | --- | --- | --- | --- | --- | --- | --- | --- | --- | --- | --- | --- | --- | --- | --- | --- | --- | --- | --- |
| 0.8 µg/mL | 1.6 µg/mL | 1.6 µg/mL | 0.8 µg/mL | CC(=O)O.CCCCCCCCCNC1=NC(C)(C)N=C(NCc2ccccc2)N1 [compound 48] | 25 µg/mL | 12.5 µg/mL | 12.5 µg/mL | 25 µg/mL | 12.5 µg/mL | 12.5 µg/mL | 3.1 µg/mL | 3.1 µg/mL | 3.1 µg/mL | 6.3 µg/mL | 6.3 µg/mL | 3.1 µg/mL | 6.3 µg/mL | 3.1 µg/mL | 3.1 µg/mL | 12.5 µg/mL | minimal bactericidal concentration (MBC) (S. aureus 209PJC [10]; 3 min): 6.3 µg/mL; minimal bactericidal concentration (MBC) (S. aureus 209PJC [10]; 5 min): 6.3 µg/mL; minimal inhibitory concentration (MIC) (P. aeruginosa No. 12 [11]): 25 µg/mL; minimal inhibitory concentration (MIC) (P. aeruginosa KM 97-5 [12]): 25 µg/mL; minimal inhibitory concentration (MIC) (E. coli NIHJ JC-2 [13]): 12.5 µg/mL; minimal inhibitory concentration (MIC) (P. aeruginosa PAO-1 [14]): 12.5 µg/mL; minimal inhibitory concentration (MIC) (S. aureus 209PJC [15]): 0.8 µg/mL; minimal bactericidal concentration (MBC) (MRSA KM 97-53 [16]; 1 min): 50 µg/mL; minimal bactericidal concentration (MBC) (MRSA KM 97-53 [16]; 3 min): 25 µg/mL; minimal bactericidal concentration (MBC) (MRSA KM 97-53 [16]; 5 min): 25 µg/mL; minimal bactericidal concentration (MBC) (MRSA 97-115 [17]; 1 min): 12.5 µg/mL; minimal bactericidal concentration (MBC) (MRSA 97-115 [17]; 3 min): 6.3 µg/mL; minimal bactericidal concentration (MBC) (MRSA 97-115 [17]; 5 min): 6.3 µg/mL; minimal bactericidal concentration (MBC) (MRSA KM 97-108 [18]; 1 min): 50 µg/mL; minimal bactericidal concentration (MBC) (MRSA KM 97-108 [18]; 3 min): 50 µg/mL; minimal bactericidal concentration (MBC) (MRSA KM 97-108 [18]; 5 min): 25 µg/mL |
| 1.6 µg/mL | 0.4 µg/mL | 1.6 µg/mL | 1.6 µg/mL | CC(=O)O.CCCCCCCCNC1=NC(C)(C)N=C(NCc2ccc(C)cc2)N1 [compound 58] | 25 µg/mL | 25 µg/mL | 12.5 µg/mL | 6.3 µg/mL | 6.3 µg/mL | 3.1 µg/mL | 6.3 µg/mL | 3.1 µg/mL | 3.1 µg/mL | 12.5 µg/mL | 6.3 µg/mL | 6.3 µg/mL | 12.5 µg/mL | 6.3 µg/mL | 3.1 µg/mL | 6.3 µg/mL | minimal bactericidal concentration (MBC) (S. aureus 209PJC [10]; 3 min): 3.1 µg/mL; minimal bactericidal concentration (MBC) (S. aureus 209PJC [10]; 5 min): 3.1 µg/mL; minimal inhibitory concentration (MIC) (P. aeruginosa No. 12 [11]): 25 µg/mL; minimal inhibitory concentration (MIC) (P. aeruginosa KM 97-5 [12]): 25 µg/mL; minimal inhibitory concentration (MIC) (E. coli NIHJ JC-2 [13]): 12.5 µg/mL; minimal inhibitory concentration (MIC) (P. aeruginosa PAO-1 [14]): 12.5 µg/mL; minimal inhibitory concentration (MIC) (S. aureus 209PJC [15]): 0.4 µg/mL; minimal bactericidal concentration (MBC) (MRSA KM 97-53 [16]; 1 min): 50 µg/mL; minimal bactericidal concentration (MBC) (MRSA KM 97-53 [16]; 3 min): 50 µg/mL; minimal bactericidal concentration (MBC) (MRSA KM 97-53 [16]; 5 min): 25 µg/mL; minimal bactericidal concentration (MBC) (MRSA 97-115 [17]; 1 min): 25 µg/mL; minimal bactericidal concentration (MBC) (MRSA 97-115 [17]; 3 min): 25 µg/mL; minimal bactericidal concentration (MBC) (MRSA 97-115 [17]; 5 min): 12.5 µg/mL; minimal bactericidal concentration (MBC) (MRSA KM 97-108 [18]; 1 min): 50 µg/mL; minimal bactericidal concentration (MBC) (MRSA KM 97-108 [18]; 3 min): 50 µg/mL; minimal bactericidal concentration (MBC) (MRSA KM 97-108 [18]; 5 min): 25 µg/mL |
| 1.6 µg/mL | 0.8 µg/mL | 1.6 µg/mL | 1.6 µg/mL | CC(=O)O.CCCCCCCCNC1=NC(C)(C)N=C(NCCCCCC)N1 [compound 68] | 25 µg/mL | 25 µg/mL | 12.5 µg/mL | 3.1 µg/mL | 3.1 µg/mL | 1.6 µg/mL | 12.5 µg/mL | 6.3 µg/mL | 6.3 µg/mL | 12.5 µg/mL | 6.3 µg/mL | 6.3 µg/mL | 6.3 µg/mL | 3.1 µg/mL | 1.6 µg/mL | 12.5 µg/mL | minimal bactericidal concentration (MBC) (S. aureus 209PJC [10]; 3 min): 6.3 µg/mL; minimal bactericidal concentration (MBC) (S. aureus 209PJC [10]; 5 min): 6.3 µg/mL; minimal inhibitory concentration (MIC) (P. aeruginosa No. 12 [11]): 50 µg/mL; minimal inhibitory concentration (MIC) (P. aeruginosa KM 97-5 [12]): 50 µg/mL; minimal inhibitory concentration (MIC) (E. coli NIHJ JC-2 [13]): 12.5 µg/mL; minimal inhibitory concentration (MIC) (P. aeruginosa PAO-1 [14]): 50 µg/mL; minimal inhibitory concentration (MIC) (S. aureus 209PJC [15]): 0.8 µg/mL; minimal bactericidal concentration (MBC) (MRSA KM 97-53 [16]; 1 min): 50 µg/mL; minimal bactericidal concentration (MBC) (MRSA KM 97-53 [16]; 3 min): 25 µg/mL; minimal bactericidal concentration (MBC) (MRSA KM 97-53 [16]; 5 min): 25 µg/mL; minimal bactericidal concentration (MBC) (MRSA 97-115 [17]; 1 min): 12.5 µg/mL; minimal bactericidal concentration (MBC) (MRSA 97-115 [17]; 3 min): 6.3 µg/mL; minimal bactericidal concentration (MBC) (MRSA 97-115 [17]; 5 min): 6.3 µg/mL; minimal bactericidal concentration (MBC) (MRSA KM 97-108 [18]; 1 min): 50 µg/mL; minimal bactericidal concentration (MBC) (MRSA KM 97-108 [18]; 3 min): 25 µg/mL; minimal bactericidal concentration (MBC) (MRSA KM 97-108 [18]; 5 min): 25 µg/mL |
